Results on one substance are retold here after US20090275655A1, “Pharmaceutical Gallium Compositions and Methods” (priority 2008, published 2009).

A short description of this data set: intravenous infusion in a cystic fibrosis patient, concentration of ionic gallium in sputum, plasma and whole blood. The format is in vivo, human patient. How it is done:
During one such treatment, this patient received an infusion of gallium citrate-nitrate over 5 days at a dose of 240 mg/day, or approximately 150 mg/m^2/day, and the concentration of ionic gallium in a deep-cough sputum specimen was then measured. The gallium concentration in the sputum was 3.2 μg/ml, or approximately 46 μmol/L, which is a concentration that is adequate to kill resistant Pseudomonas organisms in vivo. See Kaneko et al., J. Clin. Invest. 117:877-888 (2007).
Beginning about 1 month later, the same patient from Example 4 was given additional infusions of gallium citrate-nitrate at doses of 200 mg/m^2/day over 5 days, and the concentration of ionic gallium in deep-cough sputum specimens was again determined. […] The concentrations at days 5-11 are high, and even after cessation of treatment they remain levels that are believed to be therapeutic in vivo.

[1] abbreviates: Treatment Number Two, 200 mg/m^2/d, end of infusion, Day 5 (verification repeat).

As to gallium citrate-nitrate, the “gallium concentration, Sputum” value is 2.22 µg/mL (Treatment Number One, 150 mg/m^2/d, end of infusion, Day 5); 2.13 µg/mL (Treatment Number Two, 200 mg/m^2/d, end of infusion, Day 5); 2.65 µg/mL under setting [1]; 0.32 µg/mL (Treatment Number Two, Baseline (Time 0), one month after Treatment One); 1.83 µg/mL (Treatment Number Two, Post-Infusion, Day 6); 2.04 µg/mL (Treatment Number Two, Post-Infusion, Day 7). The “gallium concentration, Sputum” value came out at 4.35 µg/mL (Treatment Number Two, Post-Infusion, Day 9) and 4.78 µg/mL (Treatment Number Two, Post-Infusion, Day 11). For the setting “Treatment Number Two, 200 mg/m^2/d, end of infusion, Day 5 20:00 h”, the “gallium concentration, Whole Blood” value was 1.64 µg/mL. The “gallium concentration, Plasma” value under setting [1] amounted to 1.35 µg/mL. Moreover, the “sputum levels exceed plasma concentrations” value (patient, following systemic (IV) administration) was “roughly 2 fold”.
